In patent publication US8367707B2, “Pest control agents” (Meiji Seika Pharma Co., Ltd., priority 2005, dated 2013):

Legend:
Helicoverpa armigera = assay: Test Example 4: pesticidal effect against Helicoverpa armigera, cabbage leaf disk; type: in vivo; conditions: 100 ppm; third instar larva on cabbage leaf disk; three days after treatment, 25° C.
Source text: A cabbage leaf disk having a diameter of 2.8 cm was placed is in a plastic cup. Test compounds, which had been diluted to a predetermined concentration by the addition of a 50% aqueous acetone solution (Tween 20, 0.05% added), were spreaded over the cabbage leaf disk by means of a spray gun, and the cabbage leaf disk was then air dried. A larva at the third instar of Helicoverpa armigera was released in the cup. The cup was then lidded, and the larva was reared in the temperature-controlled room (25° C.). […] The test was repeated 5 times. Further, the death rate of the larvae were calculated in the same manner as in Test Example 1.

[1] = test system: larvae of Helicoverpa zea; conditions: Applied and Environmental Microbiology (1995), 61(12), 4429-35; cited from earlier work
[2] = test system: Plutella xylostella L larvae; conditions: WO 2004/060065; cited from earlier work
Tenebrio molitor L = conditions: WO 2004/060065; cited from earlier work

Structure (SMILES) | death rate of larvae (Helicoverpa armigera) | insecticidal activity against larvae of Helicoverpa zea [1] | insecticidal activity against Plutella xylostella L larvae [2] | insecticidal activity against Tenebrio molitor L (Tenebrio molitor L)
CC1(COC(=O)C2CCC2)C(OC(=O)C2CCC2)CCC2(C)C1CC(OC(=O)C1CCC1)C1(C)Oc3cc(-c4cccnc4)oc(=O)c3C(O)C21 (stereo not shown) [Compound 219] | not less than 80% |  |  | 
CC(=O)OCC1(C)C(OC(C)=O)CCC2(C)C1CC(OC(C)=O)C1(C)Oc3cc(-c4cccnc4)oc(=O)c3C(O)C21 (stereo not shown) [pyripyropene A] |  | insecticidal activity | insecticidal activity | insecticidal activity
